Earlier results as cited in patent publication US20060234993A1, “Use of androstane derivatives for enhancing physical performance” (priority 2005, published 2006).
Where two headings read alike, the source gives them in different places.

Tests used:
[1] = in vivo

Structure (SMILES)	body weight (mice; normal mice)	body weight (mice; obese mice)	estrogenic and androgenic side effects, including gynecomastia, water retention (edema), fat retention, prostate enlargement, acne, hair loss [1]
C[C@]12CC[C@@H](O)C[C@H]1CC[C@@H]1[C@@H]2CC[C@]2(C)C(=O)CC[C@@H]12 [Etiocholanolone, 3-alpha (beta)-hydroxy-5β-androstan-17-one]	reduce body weight	reduce body weight	
C[C@]12CC[C@H](O)CC1=CC[C@@H]1[C@@H]2CC[C@]2(C)C(=O)CC[C@@H]12 [DHEA, dehydroepiandrosterone]			negative estrogenic and androgenic side effects
